“And” between values parts separate entries of the source, which are not always exact repeats. Identical values can stand only once. “Also recorded” adds a separate entry of the source.
Key:
Assay type in all cases: in vivo, human
[1] = tested on: healthy adults; test: Phase 1 pharmacodynamics by echocardiography (LVEF and other parameters, PK/PD)
Method: Echocardiography. For PD assessments of LVEF, echocardiograms for the SAD and MAD cohorts were interpreted by the echocardiography core laboratory and used for all data analysis and dose level review decisions while immediate local interpretation of the echocardiograms was performed for safety monitoring. […] Echocardiograms on day 3 (48 h after dosing) were obtained only if the 24 h LVEF had not returned to near or above baseline, as determined by the investigator. In the MAD cohorts, echocardiograms were obtained on day −1, pre-dose on day 1, and at 1.5 h post dose on days 2, 4, and 9, and at 1.5, 24, and 72 h post dose on day 14 (for the 5-mg and 10-mg cohorts) or on day 17 (for the 7.5-mg cohort). Echocardiograms were obtained 3 days after the last dose (on day 17 or 20) only if the participant's prior LVEF was not near or above baseline, as determined by the investigator.
All participants who received ≥1 dose of study drug and had ≥1 pre-dose and ≥1 post-dose echocardiographic measurement were included in the PD analysis set. […] Descriptive statistics of the echocardiographic parameters were generated using SAS® Version 9.3 or higher.
Dose-response analysis was performed using analysis of covariance (ANCOVA) to identify the least-squares mean difference (aficamten minus placebo). To analyze the impact of drug dose on echocardiographic parameters in the SAD and MAD cohorts, an inferential analysis was conducted on the PD analysis set using linear mixed models for repeated-measures analysis of covariance (ANCOVA). The ANCOVA used baseline value as a covariate, included treatment, time-point, and time-point-by-treatment interaction as fixed effects, and change from baseline as the dependent variable. The unstructured variance-covariance structure was used, and the model accounted for the time-point repeated measures. The ANCOVA analysis was conducted separately for each study part and for each PD parameter. The least-squares means, the difference in least squares means (active minus placebo), and the associated 2-sided 95% CIs were presented for each comparison.
Analyses of concentration ‘bin’ and exposure-response were also performed using ANCOVA. SAS® PROC MIXED was used for all comparative analyses. […] A concentration bin ANCOVA was conducted using linear mixed models for repeated-measures analyses with concentration bin group as a fixed effect, baseline PD parameters as a covariate, change from baseline as the dependent variable, and a random intercept to adjust for the repeated measures. The unstructured variance-covariance structure was used. […] The ANCOVA compared the change in PD parameters between each bin versus the pooled placebo group.
The least-squares means, the difference in least squares means (bin group minus placebo), and the associated 2-sided 95% CIs were presented for each comparison. The ANCOVA analysis was conducted separately for each study part. For all time-points at which both PK data and PD measures were available, the time-points were pooled for the analysis. […] From least to greatest, the data were then divided into 5 groups of observations (‘bins’), each consisting of 20% of the data points. Each bin was treated as a separate group.
The above analysis was then repeated using concentration as a continuous variable to estimate the exposure-response trend. Both a random intercept effect and a random concentration effect were added to the ANCOVA. The estimate of the concentration slope, with corresponding 2-sided 95% CIs, and the ANCOVA analyses were presented for each study part.
For all time-points at which both PK data and PD measures were available, the time points were pooled for the analysis. A nominal significance level of 5% was used for statistical comparisons, without adjustment for multiplicity.

[2] = tested on: patients with symptomatic non-obstructive HCM (nHCM) or HCM with MVO; test: Phase 2 trial (Example 2): exploratory responder analysis in subgroups
Method: An exploratory responder analysis was performed to consider treatment effect in certain subgroups of patients.

[3] = Phase 1 plasma pharmacokinetics, food-effect cohort; conditions: 10 mg; for AUCinf / AUC24 / Cmax: geometric mean; for CL/F / t1/2: mean ± SD
Method: Food-effect cohort. […] Participants were randomized in a 1:1 ratio to 1 of 2 sequences: fasted/fed or fed/fasted.
Pharmacokinetic analyses. For all study groups, blood samples for PK assessment were obtained pre-dose, up to 12 times daily on day 1, and then at regular intervals throughout the study. Blood samples were collected according to the following schedule: SAD Cohorts: Day 1: pre-dose and 0.25, 0.5, 1, 1.5, 2, 2.5, 3, 4, 6, 8, 12, 16, 24, 36, 48, 72, 96, and 216 h post dose. […] CYPD6-PM Cohort: Day 1: pre-dose and 0.25, 0.5, 1, 1.5, 2, 2.5, 3, 4, 6, 8, 12, 16, 24, 36, 48, 72, 96, 216, 312, and 552 h post dose. Food-Effect Cohort: Day 1: pre-dose and 0.25, 0.5, 1, 1.5, 2, 2.5, 3, 4, 6, 8, 12, 16, 24, 36, 48, 72, 96, 144, and 216 h post dose. Standard non-compartmental methods were used to calculate PK parameters using Phoenix® WinNonlin® Version 7.0; actual sample collection times were utilized.

[4] = tested on: patients with symptomatic non-obstructive HCM (nHCM) or HCM with MVO; test: Phase 2 trial (Example 2): NYHA Functional Classification
Text: Other exploratory endpoints included: (i) Change in NYHA Functional Classification from baseline to Week 10; and (ii) For patients with baseline NYHA Class III disease, percentage with improvement to NYHA Class I or II disease at Week 10.

[5] = SAD 50 mg (n = 11), change from baseline at […], mean
[6] = food-effect cohort, Fasted, n = 4
[7] = food-effect cohort, Fasted, n = 10
[8] = food-effect cohort, Fed, n = 12

## CCc1nc(-c2ccc3c(c2)CC[C@H]3NC(=O)c2cnn(C)c2)no1 [aficamten, (R)—N-(5-(5-ethyl-1,2,4-oxadiazol-3-yl)-2,3-dihydro-1H-inden-1-yl)-1-methyl-1H-pyrazole-4-carboxamide]
[1]; MAD cohorts, bin concentration or linear regression analysis
  relationship of LVEF to plasma concentration of aficamten: did not reach statistical significance
[1]; MAD cohorts, plasma aficamten concentrations of ≤180 ng/ml
  suppression of LVEF versus plasma concentration: minimal suppression of LVEF
[1]; Phase 1, rapidly reversible upon study drug discontinuation
  participants with decreases in LVEF to <50%: Three participants
[1]; SAD 50 mg (n = 11), […], mean
  E (peak E wave velocity): 64 cm/s
[1]; [5]
  A (peak A wave velocity), CFB: 2.5 cm/s
  E (peak E wave velocity), CFB: -2.7 cm/s
  Heart rate, CFB: 0.5 bpm
  IVCT, CFB: 0.4 ms
  IVRT, CFB: 0.5 ms
  LAV, CFB: 0 mL
  LV EDV, CFB: 6.6 mL
  LV ESV, CFB: 8.1 mL
  LV ET, CFB: 1.9 ms
  LV SV, CFB: -6.2 mL
  LVEF, CFB: −5.8%
  e′ lateral, CFB: -1.3 cm/s
[1]; SAD 50 mg and 75 mg, 3 participants
  time after dosing at which LVEF <50% was noted: approximately 1.5 h
[1]; SAD 1-mg cohort
  participants with absolute reduction in LVEF of ≥5% from baseline: no participants
[1]; SAD 10-mg cohort
  participants with absolute reduction in LVEF of ≥5% from baseline: no participants
[1]; SAD 25-mg cohort
  participants with absolute reduction in LVEF of ≥5% from baseline: no participants
[1]; SAD 50-mg cohort, 2 of 11, core laboratory
  participants with reduction in LVEF to <50%: 18%
[1]; SAD 50-mg cohort, […] post dose, p=0.0001
  reduction in LVEF from baseline, least-squares mean difference: 5.5%
[1]; SAD 50-mg cohort, per core laboratory assessment
  LVEF of the 2 participants with LVEF <50%: 48.2% and 45.5%
[1]; SAD 75-mg cohort, 1 of 1
  participants with reduction in LVEF to <50%: 100%
[1]; SAD cohorts, core laboratory
  participants with LVEF <45%: Only the participant in the 75-mg cohort
[1]; SAD cohorts, highest bin 122 to 524 ng/ml p<0.0001, concentration-slope p=0.0027
  relationship of LVEF to plasma concentration of aficamten: statistically significant decrease in LVEF; also recorded: trend toward a decrease in LVEF
[1]; any of the MAD cohorts, core laboratory
  reduction in LVEF to <50%: not observed
[1]; following single doses
  time for reversal of decreases in LVEF to values <50%: ≤ 6 h
[1]; participants whose LVEF fell below 50%
  time for LVEF to return to baseline: ≤ 24 h
[1]; single dose of 75 mg, 1 participant
  LVEF after reduction: 34.1%
[1]; single participant, SAD 75 mg, […] post dose
  reduction in LVEF: 31.5%
[2]; beta-blockers or not, elevated TnI or E/e′ or not, genetic or family history of HCM or not
  responder analysis: treatment effect in other subgroups: Consistent treatment effects
[2]; patients with BMI ≥30 compared to BMI <30
  responder analysis: treatment effect by BMI: potential differential treatment effect
[3]; fed (high-fat breakfast) versus fasted
  effect of food on pharmacokinetics: Neither food nor CYP2D6-PM phenotype had a clinically meaningful impact; also recorded: little effect on AUC; also recorded: no significant effect of food
[3]; fed versus fasted
  increase in Cmax when taken with food: approximately 30%
[3]; [6]
  AUCinf: 3674 ng·h/mL
  CL/F: 2.8 ± 0.6 L/h
  t1/2: 84.4 ± 16.4 h
[3]; [7]
  AUC24: 601 (33) ng · h/ml
  Cmax: 50.6 ng/mL
[3]; food-effect cohort, Fasted, median, n = 10
  Tmax: 2.3 h
[3]; food-effect cohort, Fed, n = 7
  AUCinf: 3413 ng·h/mL
  CL/F: 3.1 ± 0.9 L/h
  t1/2: 78.0 ± 8.1 h
[3]; [8]
  AUC24: 631 (25) ng · h/ml
  Cmax: 65.0 ng/mL
[4]; 22 of 41 patients, interim
  patients with a change of ≥1 NYHA Class: 54%
[4]; Week 10, second interim, p=0.011 vs assumed 37% placebo effect
  patients with functional improvement of ≥1 NYHA class: 56%
[4]; by Week 10, second interim
  patients achieving NYHA Class 1 (asymptomatic): 28%
[4]; interim
  patients who improved from NYHA Class II to I: 8 patients
  patients who improved from NYHA Class III to I: 4 patients
  patients who improved from NYHA Class III to II: 12 patients
